From patent publication US7053178B2, “Synthetic peptides and kits for diagnosis of anti-phospholipid syndrome” (Yeda Research Development Co., LTD, priority 1998, dated 2006)
Where no end group is shown, it is not given here.

What was measured:
[1] = system: anti-β2GPI G-3 mAb; experiment: ELISA for adhesion molecule expression on HUVEC exposed to G-3 mAb; assay type: cell-based, human; settings: G-3 mAb preincubated with peptide
Protocol: (§1) FIG. 4 is a bar graph showing inhibition of expression of the adhesion molecules E-selectin, intracellular adhesion molecule-1 (ICAM-1) and vascular cell adhesion molecule-1 (VCAM-1) on HUVEC by specific inhibitory monomer peptides A, B, or C. To the HUVEC incubated with β2GPI, were added anti-β2GPI ILA-1, ILA-3 and G-3 mAbs with and without preincubation (2 h) with the peptide monomers A, B and C, respectively, and control peptide D. The expression of adhesion molecules was probed by ELISA employing biotinylated anti-human ICAM-1, VCAM-1, E-selectin and streptavidin-alkaline phosphatase. Each point represents mean±SD of three different experiments.
(§2) (h) ELISA for detecting the expression of adhesion molecules following exposure to anti-β2GPI mAbs and the inhibitory peptides. HUVEC cells grown in 96-well plates and preincubated with mAbs, with and without different concentrations of specific and irrelevant peptides (100 ug/ml), were washed, fixed with 0.1% glutaraldehyde, and then treated with PBS containing 0.2% Triton-X100 in order to permeabilize the cell membrane (Adamson et al., 1996). The plates were blocked with 3% BSA and incubated with biotinylated mouse anti-human E-selectin, anti-human intracellular adhesion molecule-1 (ICAM-1) or anti-human vascular cell adhesion molecule-1 (VCAM-1) (PharMingen, Torreyana Road, San Diego, Calif.) 1 μg/ml for 1 hour. The cells were then exposed to streptavidin alkaline phosphatase (Jackson) and appropriate substrate.
(§3) The enhancement of monocytes to endothelial cells followed by increase in the amount of adhesion molecules expression, as a result of exposure of endothelial cells to anti-β2GPI mAbs, has been observed previously at the laboratory of one of the present inventors. The effect of each specific peptide monomer A, B, C on the expression of the adhesion molecules E-selectin, ICAM-1 and VCAM-1 on HUVEC caused by the corresponding anti-β2GPI mAb, was examined according to Materials and Methods, section (h). […]

[2] = system: anti-β2GPI ILA-3 mAb; experiment: U937 monocyte adhesion to HUVEC exposed to ILA-3 mAb; assay type: cell-based, human; settings: ILA-3 mAb preincubated with peptide, 15 μM peptide
Protocol: FIGS. 3A–3C are graphs showing inhibition of U937 monocyte cell adhesion to HUVEC upon exposure to anti-β2GPI ILA-1, ILA-3 and G-3 mAbs and increasing concentrations of the inhibitory monomer peptides A, B and C, respectively, and of unrelated peptide D as control. The percentage of inhibition of adhesion was calculated as follows: % inhibition of adhesion=CPM in the presence of anti-β2GPI mAb−CPM in the presence of anti-β2GPI mAb and the tested peptide/CPM in the presence of anti-β2GPI mAb×100 (CPM=counts/min). Each point represents mean±SD of three different experiments.
(g) Adherence of U937 monocyte cells to endothelial cells in the presence of anti-β2GPI mAbs and the inhibitory peptides. This assay was performed as previously described (Carvalho et al., 1996). Briefly, U937 cells (a monocyte/macrophage-like cell line) were pretreated with heat-aggregated gamma-globulin for 30 min at 37° C. […] Radioactivity associated with adherence was quantified by beta-scintillation spectroscopy. The results were expressed as percent of added U937 cells that adhered and are presented as the mean±SD from 3–5 replicate wells.
The adhesion of monocytes to endothelial cells (EC) is considered a marker of EC activation. The percentage of adhesion is expressed as the portion of added U937 monocyte cells adhering to the HUVEC (thus reflecting the percentage of HUVEC coverage by the monocytes). […]

[3] = system: anti-β2GPI ILA-3 mAb; experiment: ELISA for adhesion molecule expression on HUVEC exposed to ILA-3 mAb; assay type: cell-based, human
Protocol: as §1, §2, §3

[4] = system: anti-β2GPI ILA-1 mAb; experiment: ELISA for adhesion molecule expression on HUVEC exposed to ILA-1 mAb; assay type: cell-based, human; settings: ILA-1 mAb preincubated with peptide
Protocol: as §1, §2, §3

[5] = system: experimental APS induced by anti-β2GPI mAb ILA-1; experiment: Murine experimental APS induced by ILA-1 mAb; assay type: in vivo, BALB/c mice; settings: for aPTT (activated partial thromboplastin time): mice infused i.v. with 20 μg ILA-1 mAb day 0 of pregnancy; for Platelet count / % Fetal loss (Resorbed fetuses/Total fetuses): mice infused with ILA-1 mAb
Protocol: (i) Mice: Female BALB/c mice, aged 10–12 weeks, were purchased from Tel-Aviv University Animal House, Israel. The females were caged overnight with BALB/c males and examined for vaginal plug next morning. The presence of the plug was considered as day 0 of pregnancy in all the studied groups. (j) Induction of murine experimental APS. Mice were infused intravenously with 20 μg of each one of the anti-β2GPI ILA-1, ILA-3, and G-3 mAbs at day 0 (the day at which a vaginal plug was observed following mating) (Blank et al., 1991), 6 hours later the mice received daily 40 μg/mouse of the tested peptides during 3 days. The mice were bled and sacrificed on day 15 of pregnancy. Fetal resorptions, activated partial thromboplastin time and platelet counts (markers of the APS-equivalent in mice) were determined as described (Blank et al., 1991). Significant fetal loss, thrombocytopenia and prolonged activated thromboplastin time (aPTT) were induced in naive mice following passive intravenous administration of the three anti-β2GPI mAbs ILA-1, ILA-3 and G-3, as described in Materials and Methods, section (j). The clinical manifestations of the experimental APS were prevented by infusion of the specific peptide monomers A, B, C which were delivered to the mice with the corresponding pathogenic anti-β2GPI mAbs, as shown in Table 2. […] Similarly, mice which were preinfused with control IgM and received a cocktail of the peptide monomers (A+B+C), were not affected.

[6] = peptide 40 μg/mouse daily 3 days, day 15

CATLRVYKGG [Peptide C]
E-selectin expression by HUVEC [1]: 0.215±0.047 O.D.
ICAM-1 expression by HUVEC [1]: 0.186±0.062 O.D.
VCAM-1 expression by HUVEC [1]: 0.174±0.062 O.D.

KDKATFGTHDG [Peptide B]
inhibition of adhesion of U937 to HUVEC [2]: 95%
ICAM-1 expression by HUVEC ([3]; HUVEC exposed to ILA-3 mAb): abrogated
VCAM-1 expression by HUVEC ([3]; HUVEC exposed to ILA-3 mAb): abrogated
E-selectin expression by HUVEC ([3]; ILA-3 mAb preincubated with peptide): 0.211±0.064 O.D.

NTLKTPRVGG [Peptide A]
E-selectin expression by HUVEC [4]: 0.239±0.064 O.D.
ICAM-1 expression by HUVEC [4]: 0.204±0.072 O.D.
VCAM-1 expression by HUVEC [4]: 0.252±0.071 O.D.
aPTT (activated partial thromboplastin time) [5, 6]: 33 ± 4 s
aPTT (activated partial thromboplastin time) ([5]; peptide 40 μg/mouse daily 3 days, day 15, listed as peptide A): 33 ± 4 s
Platelet count [5]: 989±103 cells/mm^3×10^3
% Fetal loss (Resorbed fetuses/Total fetuses) [5, 6]: 8 ± 2%
Platelet count [5, 6]: 989
% Fetal loss (Resorbed fetuses/Total fetuses) ([5]; peptide 40 μg/mouse daily 3 days, day 15, listed as peptide monomer A): 8±2%
